Biological target: Kappa-type opioid receptor (Cavia porcellus, UniProt P41144)
Assay: Inhibition of [3H]U-69593 binding towards Opioid receptor kappa 1 in guinea pig brain homogenates.
Format: tissue-based

Sequence of Kappa-type opioid receptor (P41144 whole entry): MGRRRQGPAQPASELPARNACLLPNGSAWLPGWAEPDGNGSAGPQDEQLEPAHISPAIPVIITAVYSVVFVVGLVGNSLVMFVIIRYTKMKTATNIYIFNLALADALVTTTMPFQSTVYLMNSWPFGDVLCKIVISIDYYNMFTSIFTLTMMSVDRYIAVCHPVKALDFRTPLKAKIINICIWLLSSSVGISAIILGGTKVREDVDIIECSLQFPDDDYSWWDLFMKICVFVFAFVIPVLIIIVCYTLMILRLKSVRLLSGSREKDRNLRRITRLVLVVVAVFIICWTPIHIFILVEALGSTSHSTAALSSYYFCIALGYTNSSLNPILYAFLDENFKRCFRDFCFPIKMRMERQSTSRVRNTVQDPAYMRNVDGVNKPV

C[C@H]1C2Cc3ccc(O)cc3[C@@]1(C)CCN2CC1C[C@@]1(C(=O)Nc1ccccc1)c1ccccc1 (some centres not stated)
Ki: 2350 nM

CC(=O)OC[C@@]1(c2ccccc2)CC1CN1CC[C@]2(C)c3cc(O)ccc3CC1[C@@H]2C (some centres not stated)
Ki: 228 nM
